From US20240392302A1, “METHOD FOR DETECTING AND QUANTIFYING RNA” (FLUORESCENCE DIAGNOSIS (SHANGHAI) BIOTECH COMPANY LTD., priority 2021, published 2024)

Experiments:
[1] = tested on: F30-N16-1 RNA aptamer molecules; assay: Binding of F30-N16-1 RNA aptamer molecules with different fluorescent molecules (fluorescence spectrum, activation multiple); type: biochemical; conditions: for Maximum emission peak (nm) / Maximum excitation peak (nm): complex with F30-N16-1; for Activation Multiple: fluorophore with F30-N16-1
Method: (§1) Nucleic acid aptamer molecules of N16 or N16 mutants were prepared by using the commonly-used experimental method (I), 2.5 μM of nucleic acid aptamer molecules and 0.5 μM of fluorophore molecules were incubated in a detection buffer (40 mM of HEPES, pH 7.4, 125 mM of KCl, 5 mM of MgCl2, 5% DMSO), and the maximum excitation peak and the maximum emission peak of the fluorescence of the nucleic acid aptamer-fluorophore molecular complex were detected with Synergy Neo2 multifunctional enzyme-labeler. Synergy Neo2 multifunctional enzyme-labeler was used again to detect fluorescence intensity of the nucleic acid aptamer-fluorophore molecular complex under its maximum excitation and emission conditions, the control sample ([…] of fluorophore molecules without nucleic acid aptamer) was also measured under the same conditions, and the ratio of fluorescence intensity was calculated. For example, as for fluorescence of the complex formed by 2.5 μM of N16-1 nucleic acid aptamer and 0.5 μM of I-5-14 fluorophore molecules, the maximum excitation peak is 512 nm and the maximum emission peak is 574 nm. It was detected by the Synergy Neo2 multifunctional enzyme-labeler that the fluorescence intensity of the complex at an excitation condition of 512±10 nm and an emission condition of 574 nm±10 nm was 49,088, while the fluorescence intensity of the control (0.5 μM of I-5-14 fluorophore molecules) under the same detection conditions was 399, so the activation multiple of N16-1 nucleic acid aptamer to I-5-14 fluorophore molecules was 123.
F30-N16-1 RNA aptamer molecules were prepared by using the commonly-used experimental method (I), and were used for detecting basic properties, including fluorescence spectrum and fluorescence activation multiple, of the binding of I-5-14 analogues with N16.

[2] = Binding constant of N16-1 and I-5-14; conditions: 10 nM N16-1 with I-5-14 of different concentrations
Method: In order to detect the binding constant of N16-1 and I-5-14, 10 nM of N16-1 was incubated with I-5-14 of different concentrations, so that fluorescence values thereof could be detected. According to the results, the binding constant of N16-1 and I-5-14 was 15.69 nM (FIG. 3D).

[3] = Function detection of the nucleic acid aptamer: fluorescence activation of I-5-14 by N16-1, its mutants and base-modified forms; type: biochemical; conditions: for Activation Multiple: 0.5 μM I-5-14 with 2.5 μM RNA; for fluorescence activation effect of base-modified N16-1 for I-5-14: base-modified aptamers
Method: A primer containing T7 promoter was used for amplification of corresponding cDNA of RNA to be detected, and T7 RNA polymerase (purchased from Fermentas) was used for obtaining RNA by means of transcription with recovered double-stranded cDNA as a template. 10 μL of 3 M NaAc and 115 μL of DEPC water were added into 20 μL of transcription system, and were mixed well before 150 μL of phenol chloroform-[…] mixture (phenol:chloroform:[…]=25:24:1) was added; then the mixture was mixed well by means of oscillation, and the supernatant was taken after centrifugation at 10,000 rpm for 5 min. An equal volume of chloroform solution was added and was mix well by means of oscillation, and then the supernatant was taken after centrifugation at 10,000 rpm for 5 min; the process was repeated once. 2.5 times the volume of anhydrous ethanol was added into the supernatant, and the mixture was placed in a refrigerator at −20° C. for 30 min and was subject to centrifugation at 12,000 rpm at 4° C. for 5 min; then the supernatant was removed, and the precipitation was cleaned twice with 75% pre-cooled anhydrous ethanol. After volatilization of the ethanol, the precipitation was re-suspended with an appropriate amount of screening buffer, and then was treated at 75° C. for 5 min and was placed at room temperature for more than 10 min for subsequent experiments.
as §1
According to the results, most N16-1 mutants with a single base mutation retained a relatively strong fluorescence activation effect (no smaller than 2 times) on I-5-14 (Table 2). Some N16-1 mutants with 2 to 5 base mutations still retained a relatively strong fluorescence activation effect (greater than 20 times) for I-5-14 (Table 3). In a word, many single-base and multi-base mutants of N16-1 might still retain the aptamer function of activating the 1-5-14 fluorophore molecules.

[4] = complex of 2.5 μM N16-1 and 0.5 μM I-5-14

Maximum emission peak (nm) [1] | Maximum excitation peak (nm) [1] | Activation Multiple [1] | Compound | also measured
627 nm | 513 nm | 14 | CN(CCO)c1cc2sc(/C=C3\OC(=O)NC3=O)cc2s1 [I-5-55] | –
627 nm | 568 nm | 12 | CN(CCO)c1cc2sc(/C=C3\SC(=O)NC3=S)cc2s1 [I-5-56] | –
647 nm | 579 nm | 1279 | CN(CCO)c1cc2sc(/C=C3\SC(=S)NC3=O)cc2s1 [I-5-57] | –
725 nm | 692 nm | 1422 | CN(CCO)c1cc2sc(/C=C3\SC(=S)NC3=S)cc2s1 [I-5-58] | –
655 nm | 581 nm | 12 | CN1C(=O)/C(=C/c2cc3sc(N(CCO)CCO)cc3s2)SC1=S [I-5-59] | –
626 nm | 552 nm | 8 | CN1C(=O)/C(=C/c2cc3sc(N(CCO)CCO)cc3s2)NC1=S [I-5-60] | –
677 nm | 483 nm | 6 | CN(CCO)c1ccc(-c2ccc(/C=C3\SC(=S)NC3=O)s2)cc1 [I-5-61] | –
689 nm | 529 nm | 256 | CN(CCO)c1ccc(-c2ccc(/C=C3\SC(=O)NC3=O)s2)s1 [I-5-62] | –
673 nm | 521 nm | 6 | CN1C(=O)/C(=C/c2ccc(-c3ccc(N(C)CCO)s3)cc2)NC1=S [I-5-63] | –
665 nm | 522 nm | 12 | CN(CCO)c1ccc2cc(/C=C3\SC(=S)NC3=O)sc2c1 [I-5-64] | –
605 nm | 462 nm | 35 | CN(CCO)c1ccc2cc(/C=C3\SC(=O)NC3=O)sc2c1 [I-5-65] | –
748 nm | 666 nm | 81 | CN(CCO)c1ccc2cc(/C=C3\SC(=S)NC3=S)sc2c1 [I-5-66] | –
652 nm | 516 nm | 7 | CN(C)c1ccc2cc(/C=C3\NC(=S)NC3=O)sc2c1 [I-5-67] | –
663 nm | 536 nm | 9 | CN1C(=O)/C(=C/c2cc3ccc(N(CCO)CCO)cc3s2)SC1=S [I-5-68] | –
661 nm | 531 nm | 11 | CN(CCO)c1ccc2nc(/C=C3\NC(=S)NC3=O)sc2c1 [I-5-69] | –
686 nm | 556 nm | 12 | CN(CCO)c1ccc2nc(/C=C3\SC(=S)N(CCC(=O)O)C3=O)sc2c1 [I-5-70] | –
627 nm | 471 nm | 6 | CN1C(=O)S/C(=C\c2nc3ccc(N(C)CCO)cc3s2)C1=O [I-5-71] | –

Maximum emission peak (nm) [1] | Maximum excitation peak (nm) [1] | Activation Multiple [1] | Compound | also measured
721 nm | 636 nm | 14 | Nc1ccc2nc(/C=C3\SC(=S)NC3=S)sc2c1 [I-5-72] | –
731 nm | 681 nm | 12 | CC1(C)c2cc(/C=C3\SC(=S)NC3=O)ccc2-c2ccc(N(CCO)CCO)cc21 [I-5-73] | –
691 nm | 635 nm | 14 | CN(C)c1ccc2c(c1)C(C)(C)c1cc(/C=C3\SC(=O)NC3=O)ccc1-2 [I-5-74] | –
791 nm | 741 nm | 7 | CN(CCO)c1ccc2c(c1)C(C)(C)c1cc(/C=C3\SC(=S)NC3=S)ccc1-2 [I-5-75] | –
774 nm | 724 nm | 9 | CN(CCO)c1ccc2c(c1)C(C)(C)c1cc(/C=C3\NC(=S)NC3=O)ccc1-2 [I-5-76] | –
783 nm | 736 nm | 5 | CN(CCO)c1ccc2c(c1)C(C)(C)c1cc(/C=C3\NC(=S)NC3=O)sc1-2 [I-5-77] | –
681 nm | 582 nm | 8 | CN(CCO)c1ccc2c(c1)C(C)(C)c1cc(/C=C3\SC(=S)NC3=S)sc1-2 [I-5-78] | –
733 nm | 682 nm | 11 | CN(CCO)c1ccc2c(c1)C(C)(C)c1cc(/C=C3\SC(=S)NC3=O)sc1-2 [I-5-79] | –
743 nm | 686 nm | 7 | CN1C(=O)/C(=C/c2cc3c(s2)-c2ccc(N(CCO)CCO)cc2C3(C)C)SC1=S [I-5-80] | –
713 nm | 635 nm | 7 | CN(CCO)c1cc2c(s1)-c1sc(/C=C3\NC(=S)N(N)C3=O)cc1C2(C)C [I-5-81] | –
801 nm | 748 nm | 3 | CN(CCO)c1cc2c(s1)-c1sc(/C=C3\SC(=S)NC3=S)cc1C2(C)C [I-5-82] | –
733 nm | 685 nm | 4 | CN(CCO)c1cc2c(s1)-c1sc(/C=C3\SC(=S)NC3=O)cc1C2(C)C [I-5-83] | –
737 nm | 685 nm | 6 | CN1C(=O)/C(=C/c2cc3c(s2)-c2sc(N(CCO)CCO)cc2C3(C)C)SC1=S [I-5-84] | –
– | – | – | N16-1: nucleic acid aptamer with a sequence SEQ ID NO: 1 (GGGCNCCAGGNGCNGCNNCGGCAGGNAACGGACNNAGANCCACNGNACGCCC; RNA, backbone and the base at N not given here) | Kd [2]: 15.7 nM; fluorescence intensity of the complex ([3]; 2.5 μM N16-1, 0.5 μM I-5-14, excitation 512±10 nm, emission 574 nm±10 nm): 49,088; activation multiple of N16-1 nucleic acid aptamer to I-5-14 fluorophore molecules ([3]; 2.5 μM N16-1, 0.5 μM I-5-14, excitation 512±10 nm, emission 574±10 nm): 123; Activation Multiple ([3]; N16-1 mutants containing a single base mutation): 123; Activation Multiple ([3]; N16-1 mutants containing multi-base mutation): 123; maximum emission peak [3, 4]: 574 nm; maximum excitation peak [3, 4]: 512 nm
– | – | – | N16-2: base-modified N16-1, SEQ ID NO: 4, stem-loop structure bases replaced with deoxyribonucleotides (GGGCNCCAGGNGCNGCNNCGGCAGGNAACGGACNNAGANCCACNGNACGCCC; some stem-loop nucleotides deoxyribonucleotides, positions not given here) | fluorescence activation effect of base-modified N16-1 for I-5-14 [3]: significantly activate
– | – | – | N16-3: base-modified N16-1, SEQ ID NO: 5, some of the bases modified by 2′-F (GGGCNCCAGGNGCNGCNNCGGCAGGNAACGGACNNAGANCCACNGNACGCCC; some nucleotides 2'-fluoro modified, positions not given here) | fluorescence activation effect of base-modified N16-1 for I-5-14 [3]: significantly activate
